Assays:
[1] = target: T1, SCF-Skp2 (Skp2-Cks1) (Homo sapiens, UniProt P61024+Q13309); test: In vitro ubiquitylation assay, Skp2-mediated p27 ubiquitylation (Wild-Type Cks1); format: biochemical; details: 50 μM compound, immunoblot for p27-(Ub)n
T1 construct: made in house; host or cells: cell-free: rabbit reticulocyte lysate (TNT T7 Coupled Reticulocyte Lysate System, Promega) from pcDNA3.1 plasmids
Procedure: The 96 hits were tested in an in vitro ubiquitylation assay driven by in vitro transcribed/translated Skp2, Cks1, and p27 (Sitry et al., “Three Different Binding Sites of Cks1 are Required for p27-ubiquitin Ligation,” J. Biol. Chem. 277:42233-42240 (2002)). Assay sensitivity was established for various criteria (FIG. 1B): Enhanced ubiquitylation with Cks1 (lane 2), kinase activity requirement (lane 3), and responsiveness to known inhibitors of Cullin (lane 5) or Cdk2 (lane 6) activity (Meijer et al., “Biochemical and Cellular Effects of Roscovitine, a Potent and Selective Inhibitor of the Cyclin-dependent Kinases cdc2, cdk2 and cdk5,” Eur. J. Biochem. 243:527-536 (1997); Soucy et al., “An Inhibitor of NEDD8-activating Enzyme as a New Approach to Treat Cancer,” Nature 458:732-736 (2009), which are hereby incorporated by reference in their entirety). Compounds showing at least 50% inhibition of Skp2-mediated p27 ubiquitylation (FIG. 1C) were counter-screened for inactivity against two anti-target E3 ligases: MDM2 and SCF-βTrCP (FIGS. 6A-B). Compounds C1 and C2 were identified from the primary VLS and C16 and C20 were identified from a second VLS (FIG. 2).
(§1) In vitro reconstituted assays were performed as previously described (Dorrello et al., “S6K1- and betaTRCP-mediated Degradation of PDCD4 Promotes Protein Translation and Cell Growth,” Science 314:467-471 (2006), which is hereby incorporated by reference in their entirety) with the exceptions of the use of (1) unlabeled proteins (wild-type and mutant Skp2 and Cks1, p27, Flag-βTrCP, and HA-PDCD4) generated by in vitro transcription-translation (TNT T7 Coupled Reticulocyte Lysate System, Promega); (2) chain elongation with non-methylated ubiquitin; and (3) immunoblotting to detect poly-ubiquitylation. The following reagents were obtained from Boston Biochem: UBE1, His-UbcH3, His-UbcH5c, Ubiquitin, and Ubiquitin Aldehyde. Additional reagents include CDK2/CyclinE1 (Sigma-Aldrich), S6K (Invitrogen), Okadaic acid (Sigma), and DMSO (Sigma-Aldrich). For ubiquitin charging, UBE1 (100 nM) and His-UbcH3 (10 ng/μl) were incubated with ubiquitin (2.5 μg/μl), ATP (2 mM), and 10 μM […] of inhibitors or Vehicle control for 60 min at 30° C. Reactions were stopped in nondenaturing 2× Sample Buffer, with the addition of 10% Beta-mercaptoethanol as indicated, and analyzed by Western blotting.

[2] = target: T2, Q52L-Cks1 mutant (Homo sapiens, UniProt P61024+Q13309, Q52L); test: In vitro ubiquitylation assay with Q52L-Cks1 mutant; format: biochemical; details: 50 μM compound
T2 construct: made in house; host or cells: cell-free: rabbit reticulocyte lysate (TNT T7 Coupled Reticulocyte Lysate System, Promega) from pcDNA3.1 plasmids
T2 sequence (Q13309 whole entry): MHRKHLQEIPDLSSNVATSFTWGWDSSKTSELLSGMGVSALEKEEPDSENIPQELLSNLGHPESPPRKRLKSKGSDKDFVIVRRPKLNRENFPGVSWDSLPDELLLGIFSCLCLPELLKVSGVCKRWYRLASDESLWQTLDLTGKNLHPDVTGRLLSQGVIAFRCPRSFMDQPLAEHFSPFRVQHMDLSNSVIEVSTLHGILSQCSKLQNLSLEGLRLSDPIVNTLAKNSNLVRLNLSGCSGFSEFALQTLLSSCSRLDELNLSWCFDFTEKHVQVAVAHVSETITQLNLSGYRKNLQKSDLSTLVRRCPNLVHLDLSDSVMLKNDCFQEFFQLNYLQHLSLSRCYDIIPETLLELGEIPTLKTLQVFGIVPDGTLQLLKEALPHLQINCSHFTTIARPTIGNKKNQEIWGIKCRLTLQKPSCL
T2 sequence (P61024 whole entry Q52L): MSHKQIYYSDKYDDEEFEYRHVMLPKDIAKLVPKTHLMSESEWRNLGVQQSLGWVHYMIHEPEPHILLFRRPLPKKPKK
T2 sequence (P63208 whole entry partner): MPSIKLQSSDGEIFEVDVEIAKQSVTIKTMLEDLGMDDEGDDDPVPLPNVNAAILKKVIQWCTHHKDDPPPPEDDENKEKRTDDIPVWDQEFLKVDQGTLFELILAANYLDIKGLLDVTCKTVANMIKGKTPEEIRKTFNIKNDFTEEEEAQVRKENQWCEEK
T2 sequence (Q13616 whole entry partner): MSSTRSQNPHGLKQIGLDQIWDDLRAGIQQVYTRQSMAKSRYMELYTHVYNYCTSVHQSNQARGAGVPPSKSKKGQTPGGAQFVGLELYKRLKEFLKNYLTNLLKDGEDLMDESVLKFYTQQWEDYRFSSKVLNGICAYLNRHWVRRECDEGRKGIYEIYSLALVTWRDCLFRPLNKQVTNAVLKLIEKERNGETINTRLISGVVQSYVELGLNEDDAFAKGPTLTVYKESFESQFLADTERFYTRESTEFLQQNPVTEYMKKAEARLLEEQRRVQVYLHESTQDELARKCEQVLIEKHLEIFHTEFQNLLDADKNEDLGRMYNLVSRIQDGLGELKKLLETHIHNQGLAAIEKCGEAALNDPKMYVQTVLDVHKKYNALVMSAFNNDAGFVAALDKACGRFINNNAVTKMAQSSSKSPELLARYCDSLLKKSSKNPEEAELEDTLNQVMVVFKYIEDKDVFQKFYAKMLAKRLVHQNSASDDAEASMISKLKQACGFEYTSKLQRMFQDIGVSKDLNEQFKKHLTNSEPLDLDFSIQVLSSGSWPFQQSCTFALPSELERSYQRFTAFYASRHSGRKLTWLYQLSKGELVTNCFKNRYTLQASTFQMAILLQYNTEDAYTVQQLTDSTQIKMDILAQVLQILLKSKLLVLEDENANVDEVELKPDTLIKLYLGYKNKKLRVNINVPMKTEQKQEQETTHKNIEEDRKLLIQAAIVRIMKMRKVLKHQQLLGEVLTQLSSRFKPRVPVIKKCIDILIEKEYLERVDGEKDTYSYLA
T2 sequence (P62877 whole entry partner): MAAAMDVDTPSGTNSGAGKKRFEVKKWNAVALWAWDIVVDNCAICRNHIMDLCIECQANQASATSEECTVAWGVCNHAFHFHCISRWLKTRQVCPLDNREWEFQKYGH
From the text: To interrogate the compound-contacting residues on the Skp2-Cks1 interface, mutants of Skp2 and Cks1 were designed based on the in silico dockings. The predicted electrostatic interactions between the positive charge on the NH2 side group in Q52-Cks1 with the COOH-group in C1 and C16 should be lost when mutated to a neutral-charge leucine (FIG. 7B). […] This confirms that the Q52-Cks1 residue is important for only C1 and C16 activity, as predicted by the in silico dockings. […] The Skp2-R294A and the Cks1-R44A/H mutants lacked ubiquitylation activity (FIG. 7C) preventing the interrogation of these residues' contribution to the activity of C2 and C20. […] Thus, the predicted three-dimensional mode of interaction of the compounds with Skp2-Cks1 was validated at a chemical and protein level.
as §1

[3] = test system: ECC-1 cells; test: ECC-1 cytotoxicity (trypan blue exclusion); format: cell-based; details: 10 μM, 48 h
[4] = test system: ECC-1 cells; test: ECC-1 cell proliferation (MTS assay); format: cell-based, human; details: for Increase in nuclear p27 and inhibition of cell proliferation following Skp2 knock-down: ECC-1, Skp2 siRNA, knock-down by 85%; for Inhibition of cell proliferation: ECC-1 transfected with control siRNA (FIG. 14B)
Procedure: ECC-1 cells in complete media were seeded at 1.2×10^5/well in 12-well plates and after 24 h the cells were transfected with either control siRNA or 10 nM Skp2 siRNA using HiPerfect transfection reagent (Qiagen; Valencia, Calif.) and siRNA to three different sites including a pool of siRNAs as shown in the experiment, as previously described (Huang et al., “Estrogen and Progesterone Regulate p27kip1 Levels via the Ubiquitin-Proteasome System: Pathogenic and Therapeutic Implications for Endometrial Cancer,” PLoS One 7:e46072 (2012), which is hereby incorporated by reference in its entirety). […] To determine the effect of C2 and C20 on cell proliferation after knock-down of Skp2, the cells were seeded in 96-well plates at a density of 1×10^4 in complete media, transfected, synchronized, treated with C2 and C20, and cell proliferation determined, as described above.

[5] = test system: p27 in ECC-1 cells; test: Cycloheximide p27 half-life in ECC-1 cells; format: cell-based, human; details: 18 h treatment, 20 μM CHX chase, control 3.2 h
Procedure: The endometrial carcinoma cell line (derived from a well-differentiated endometrioid Type I ECA) ECC-1 cells (ATCC, Manassas, Va.) were plated at a density of 3×10^5/well/6-well plate and grown in DMEM:F12 supplemented with 10% FBS (BioWest, Ocala, Fla.). The cell line was passaged in the laboratory for fewer than 6 months after receipt. […] The protocol was approved by The Institutional Review Board of NYU, informed consent was obtained, and the samples were identified and graded by two surgical pathologists and graded according to the WHO (I-III) for decreased glandular structure and nuclear atypia (Silverberg, “Hyperplasia and Carcinoma of the Endometrium,” Semin. Diagn. Pathol. 5:135-153 (1988), which is hereby incorporated by reference in its entirety). ECAs were plated at a density of 2.2×10^6 cells/6-well Primaria® plates (BD Biosciences, San Jose, Calif.) in McCoys 5A media without phenol red containing 10% charcoal-stripped FBS, 2 mM L-Glutamine (Invitrogen) and antimycotic antibiotic solution (Mediatech, Hendon, Va.). ECC-1 cells and primary ECA cells were grown to 70-80% confluence, synchronized in serum-free media for 24 h, treated with 10 […] Skp2E3LIs for 18 h or as indicated in the figures. […] Whole cell lysates were collected at increasing time points (0, 2, 4, 6 h) and 20 μg protein/well analyzed for p27 by immunoblotting.

T1 sequence (Q13309 whole entry): as the sequence (Q13309 whole entry) above
T1 sequence (P61024 whole entry): as the sequence (P61024 whole entry Q52L) above, with L52Q counted along it
T1 sequence (P63208 whole entry partner): as the sequence (P63208 whole entry partner) above
T1 sequence (Q13616 whole entry partner): as the sequence (Q13616 whole entry partner) above
T1 sequence (P62877 whole entry partner): as the sequence (P62877 whole entry partner) above

Structure (SMILES)	Inhibition of Skp2-mediated p27 ubiquitylation [1]	Inhibition of p27 ubiquitylation with Q52L-Cks1 [2]	Cytotoxicity [3]	Increase in nuclear p27 and inhibition of cell proliferation following Skp2 knock-down [4]	Inhibition of cell proliferation [4] [%]	Extension of p27 half-life over cycloheximide (CHX) control [5] [h]	Cell death [3] [%]
O=C(O)COc1ccc(Br)cc1C=C1SC(=S)N(Cc2cccnc2)C1=O [Compound C1]	active	inactive					
COC(=O)C1=C(C)N(c2ccc(Br)cc2)C(=O)C1=Cc1ccccc1O [Compound C2]	strongly inhibited	strongly inhibited	not cytotoxic	completely abrogated	29	6.1	
O=C(O)COc1ccc(C=C2SC(=O)N(CC(=O)c3ccc(Cl)cc3)C2=O)cc1 [Compound C16]	active	inactive					77
O=C(NN=Cc1cc(Br)cc(Br)c1O)C(=Cc1ccccc1O)NC(=O)c1ccccc1 [Compound C20]	strongly inhibited	strongly inhibited	not cytotoxic	completely abrogated	27	2.7	

— US9261497B2, “Method of treating cancer with modulators of SCFSkp2” (New York University, priority 2012, dated 2016)
